# Source: PMC11420952, “A Chemical Approach to Assess the Impact of Post-translational Modification on MHC Peptide Binding and Effector Cell Engagement” (ACS Chemical Biology, 2024)
# Where no end group is shown, it is not given here. [ ]: non-standard residue; d: D form. The star is where a group is joined. Biotin = O=C1N[C@H]2[C@H](CS[C@H]2CCCCC(=O)*)N1; Cit = NC(=O)NCCC[C@H](N)C(=O)O
# Experiments:
# [1] = system: OVA specific TCR of B3Z T cell hybridoma; test: B3Z T cell activation with peptide-loaded RMA-S cells (NFAT-LacZ / CPRG); assay type: cell-based; conditions: RMA-S cells with peptide and B3Z T cells overnight, effector to target 1:1; β-galactosidase by CPRG, absorbance 570 nm; Figure 2C, mean ± SD n = 4
# Text: To assess the impact of ovaWT PTMs on TCR recognition, we utilized the B3Z T cell hybridoma cell line that contains an OVA specific TCR along with a NFAT-LacZ reporter gene that encodes for β-galactosidase on an IL-2 inducible promoter.[79] Upon B3Z recognition of the OVA pMHC complex on RMA-S cells, IL-2 production promotes β-galactosidase expression, which can hydrolyze chlorophenol red-β-D-galactopyranoside (CPRG), and the resulting color change is representative of activation levels.
# 10^5 RMA-S cells were seeded in a treated 96 well plate at 37 °C overnight. The following day the culture media was replaced with media containing indicated concentration of peptide along with 10^5 B3Z cells in culture media and coincubated overnight. Cells were then spun down at 500xg for 5 min and washed with 1X PBS a total of two times. Lysis buffer containing 0.2% saponin, 500 μM CPRG reagent, 100 mM MgCl2, and 100 mM β-mercaptoethanol in 1X PBS was added to each well. After 2–4 h absorbance 570 was recorded using a BioTek Epoch 2 microplate reader.
# H-2K^b [2] = molecular target: T1, H-2K^b (Mus musculus, UniProt P01901); test: cell-based; conditions: RMA-S cells, peptide 20 μM, APC anti-mouse H-2K^b antibody, flow cytometry; for effect of PTM on MHC binding versus the unmodified peptide (ovaWT or mbpWT): Figures 2B and 3B, mean ± SD n = 4, two-tailed t-test; for effect of PTM on MHC binding versus sarsWT: Figure 1C, mean ± SD n = 3, two-tailed t-test
# T1 construct: endogenous in cells; host or cells: RMA-S cells (TAP-deficient)
# T1 sequence (P01901 22-369): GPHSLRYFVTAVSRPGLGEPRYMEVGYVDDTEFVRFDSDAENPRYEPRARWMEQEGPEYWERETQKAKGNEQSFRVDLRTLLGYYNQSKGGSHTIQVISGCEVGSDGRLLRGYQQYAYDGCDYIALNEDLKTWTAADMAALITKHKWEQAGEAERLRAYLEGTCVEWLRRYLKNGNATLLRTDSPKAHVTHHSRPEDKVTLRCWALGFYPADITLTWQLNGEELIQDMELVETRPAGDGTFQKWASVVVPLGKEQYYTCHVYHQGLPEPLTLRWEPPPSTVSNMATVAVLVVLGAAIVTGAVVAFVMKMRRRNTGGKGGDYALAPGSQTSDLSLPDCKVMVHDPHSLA
# T1 sequence (P01887 21-119 partner): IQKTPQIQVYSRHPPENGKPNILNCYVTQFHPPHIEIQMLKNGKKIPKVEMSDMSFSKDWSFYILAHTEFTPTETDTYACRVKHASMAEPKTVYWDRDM
# MHC on RMA-S cells = test: Mild acid elution of MHC-bound peptides from RMA-S cells and mass spectrometry; assay type: cell-based; conditions: 10^9 RMA-S cells, 20 μM peptide, mild acid elution pH 3.3, LC-MS/MS (LTQ-Orbitrap); Figures S5-S8
# Protocol: We then sought to detect changes in peptide binding via a competition assay using the parent cell line (RMA) that has a competent TAP system. To this end, we performed a competition assay using the panel of OVA peptides barring PTM mark in live RMA cells. The assay was performed by coincubating RMA cells individually with PTM-modified peptides and also ovaFl (SIINFEK(FITC)L), in which the […] of lysine is modified with fluoresceine. ovaFl has long been utilized by the field to interrogate binding of untagged peptides for MHC molecules. A decrease in cellular fluorescence should indicate higher association levels with MHC molecules, thereby informing on the relative affinity of the PTM-modified molecules. Critically, this assay retains MHC molecules within a physiologically relevant context and this alternative readout should complement the RMA-S MHC stabilization assay. […]
# The emitter tip of the analytical column was laser-pulled to produce an opening of 2–5 μm, and a 2 mm kasil frit was used in place of the irregular reverse phase (RP) resin. […] If the same precursor ion was selected three times or was detected twice within a 20-s repeat duration, the ion was dynamically excluded for 15 s. […]
# H-2K^b [3] = molecular target: T1, H-2K^b; conditions: reported in the literature; cited from earlier work
substance,measurement,setting,value
Biotinylated Lysine SIINFKEL: ovaWT with biotinylated lysine (SIINFK(Biotin)EL; not fully specified),effect of PTM on TCR recognition (B3Z activation) versus ovaWT,[1],reduction in TCR recognition
same,effect of PTM on MHC binding versus the unmodified peptide (ovaWT or mbpWT),H-2K^b [2],binding levels are altered but the change is not significant
Citrullinated ESIVRFPNI: sarsWT with arginine to citrulline (R5) (ESIV[Cit]FPNI),effect of PTM on MHC binding versus sarsWT,H-2K^b [2],no significant effect
N-Acetyl ESIVRFPNI [sarsWT with N-terminus acetylation],effect of PTM on MHC binding versus sarsWT,H-2K^b [2],completely disrupted MHC binding
Phosphoserine SIINFEKL: ovaWT with phosphorylated N-terminal serine,effect of PTM on TCR recognition (B3Z activation) versus ovaWT,[1],reduction in TCR recognition
same,effect of PTM on MHC binding versus the unmodified peptide (ovaWT or mbpWT),H-2K^b [2],significant decrease in MHC binding
"SIINFEKL [ovaWT, reference compound]",detection of MHC-bound peptide after elution from live RMA-S cells,MHC on RMA-S cells,clearly detected
SNFVSAGI [cntPEP],interaction with H-2K^b (negative control),H-2K^b [3],not interact appreciably
ovaK7m3: ovaWT with trimethylation of K7,effect of PTM on MHC binding versus the unmodified peptide (ovaWT or mbpWT),H-2K^b [2],does not disrupt binding
same,detection of MHC-bound peptide after elution from live RMA-S cells,MHC on RMA-S cells,detected by mass spectrometry
